Assay results reported in patent publication US20060005464A1, “Alkyl ethanolamine and biocide combination for hydrocarbon based fuels” (priority 2004, published 2006).

Columns and labels:
[1] = test system: Pseudomonas aeruginosa (ATCC 10145); test: Maximum growth slope of Pseudomonas aeruginosa with Bronopol plus alkanolamine; conditions: pH 8.5, TSB
[2] = test system: Aureobasidium pullulans (ATCC 12536); test: End-point optical density of Aureobasidium pullulans with MIT/CMIT plus alkanolamine; type: cell-based; conditions: SAB media pH 8.5
Procedure: The impact of N-alkylalkanolamines on the control of the bacterial species Aureobasidium pullulans (ATCC 12536), a bacteria common in water-oil systems, was evaluated by measuring optical absorbance of samples treated with various concentrations of N-alkyl alkanolamines. […] SAB media at pH 8.5 (Tris buffer) was employed. Table 8 summarizes measurement of end-point optical density after 24 hours and 48 hours: […]

[3] = test system: Pseudomonas Aeruginosa (ATCC27853); test: Microtiter plate growth of Pseudomonas Aeruginosa with amines and GROTAN; type: cell-based; conditions: for growth of Pseudomonas Aeruginosa (Table 1 entry): pH 8.5, 24 hours; for enhancement in the biocidal effect of GROTAN: conclusion from Table 1
[4] = test system: Pseudomonas aeruginosa (ATCC 10145); test: Maximum growth slope of Pseudomonas aeruginosa with Proxel DB20 (BIT) plus alkanolamine; type: cell-based; conditions: pH 8.5, TSB, 24 hour
Procedure: A culture of Pseudomonas aeruginosa (ATCC 10145) at pH=8.5 in TSB (trypticase soy broth) media was prepared. The biocide Proxel DB20 (20% suspension of benzoisothiazolone (BIT) in water), as sold by Avecia, was added at varying concentrations in combination with 1000 ppm or 2000 ppm of the alkanolamines N-butylaminoethanol (BAE), 2-amino-2-methyl-1-propanol (AMP), dibutylaminoethanol (DBAE) or n-octylaminoethanol (OAE). Optical density measurements were taken every 15 minutes over a 24 hour time period (total of 96 data points). The maximum growth slope was calculated by taking the 10 contiguous data points that result in the highest growth slope (units of OD per time) over a 24 hour period. Those 10 data points were subjected to a least squares linear fit to calculate the maximum growth slope.

[5] = test system: mixed enteric bacteria (klebsiella pneumoniae, Proteus vulgarus, Citrobacter sp., Escherichia coli); test: Maximum growth slope of mixed enteric bacteria culture with GROTAN plus alkanolamine; type: cell-based; conditions: pH 9.0, TSB with emulsified oil, 24 hour
Procedure: A culture of mixed enteric bacteria (klebsiella pneumoniae, Proteus vulgarus, Citrobacter sp., Escherichia coli) at pH=9.0 in TSB (trypticase soy broth) media mixed with emulsified oil was prepared. A biocide, GROTAN® {78.5% 1,3,5-(2-hydroxyethyl)-s-triazine solution in water} as sold by Troy Chemicals (Florham Park, N.J.) was added at varying concentrations to the culture in combination with 2500 ppm of one of the four alkanolamines, N-butylaminoethanol (BAE), diethanolamine (DEA), diglycolamine (DGA) or 2-amino-2-methyl-1-propanol (AMP). Optical density measurements were taken every 15 minutes over a 24 hour time period (total of 96 data points). The maximum growth slope was calculated by taking the 10 contiguous data points that result in the highest growth slope (units of OD per time) over the 24 hour period. Those 10 data points were subjected to a least squares linear fit to calculate the maximum growth slope.

[6] = test system: Mycobacterium smegmatis (ATCC # 19420); test: End-point optical density of Mycobacterium smegmatis with N-alkyl alkanolamines (590 nm, 72 h); type: cell-based; conditions: 590 nm, after 72 hours, pH 8.5, tetrazolium dye
[7] = test system: Mycobacterium marinum (ATCC # 19420); test: End-point optical density and MIC, Mycobacterium marinum (660 nm, 72 h); type: cell-based; conditions: pH 8.5; for end-point optical density: 660 nm, after 72 hours
Procedure: The impact of N-alkylalkanolamines on the control of the bacterial species Mycobacterium smegmatis (ATCC # 19420), a bacteria common in water-oil systems, was evaluated by measuring optical absorbance of samples treated with various alkyl ethanolaminesis DCHA=Dicyclohexylamine, OAE=Octylaminoethanol, ODEA=Octyldiethanolamine. Bacterial concentration was monitored indirectly via optical absorbance at 660 nm. The values reported are end-point optical densities in milliOD units after 48 hours. The media consisted of a standardized solution of clear nutrient broth (Middlebrook 7H10 with OADC supplement), amine, buffer (Tris) and water. The pH was adjusted initially to 8.5 with Tris buffer. The first column in the Table gives the amine concentration in ppm. The final two columns give data for cells that also contained 2 grams per liter of boric acid. In all cases, the values are averages of at least three replicates. The final row of the Table gives an estimate of the concentration range in which the amine in question starts to inhibit the growth of this bacterial species.
The impact of the N-alkylalkanolamines of Example 6 on the control of the bacterial species Mycobacterium marinum (ATCC # 19420), bacteria common in water-oil systems, was evaluated as described above in Example 6. Bacterial concentration in the experimental media was monitored indirectly via optical absorbance at 660 nm. The values reported are end-point optical densities in milliOD units after 72 hours. The media consisted of a standardized solution of clear nutrient broth (Middlebrook 7H10 with OADC supplement), amine, buffer (Tris) and water. The pH was adjusted initially to 8.5 with Tris buffer. The first column in the Table gives the amine concentration in ppm. In all cases, the values are averages of at least three replicates. The final row of the Table gives an estimate of the concentration range in which the amine in question starts to inhibit the growth of this bacterial species.

[8] = amine 2000 ppm plus Bronopol 5 ppm
[9] = amine 2000 ppm plus Bronopol 15 ppm
[10] = amine 2000 ppm plus Bronopol 25 ppm
[11] = amine 2000 ppm plus Bronopol 35 ppm
[12] = amine 1000 ppm plus 50 ppm MIT/CMIT, 24 hours
[13] = amine 1000 ppm plus 50 ppm MIT/CMIT, 48 hours
[14] = amine 2000 ppm plus 50 ppm MIT/CMIT, 24 hours
[15] = amine 2000 ppm plus 50 ppm MIT/CMIT, 48 hours
[16] = amine 2000 ppm plus GROTAN 100 ppm
[17] = amine 2000 ppm plus GROTAN 250 ppm
[18] = amine 2000 ppm plus GROTAN 500 ppm
[19] = amine 2000 ppm plus GROTAN 1000 ppm
[20] = amine 2000 ppm plus GROTAN 2000 ppm
[21] = amine 4000 ppm plus GROTAN 100 ppm
[22] = amine 4000 ppm plus GROTAN 250 ppm
[23] = amine 4000 ppm plus GROTAN 500 ppm
[24] = amine 4000 ppm plus GROTAN 1000 ppm
[25] = amine 4000 ppm plus GROTAN 2000 ppm
[26] = amine 1000 ppm plus BIT 150 ppm
[27] = amine 1000 ppm plus BIT 250 ppm
[28] = amine 1000 ppm plus BIT 500 ppm
[29] = amine 2000 ppm plus BIT 150 ppm
[30] = amine 2000 ppm plus BIT 250 ppm
[31] = amine 2000 ppm plus BIT 500 ppm
[32] = 2500 ppm amine plus GROTAN 650 ppm
[33] = 2500 ppm amine plus GROTAN 1650 ppm

CC(C)(N)CO [AMP, 2-methyl-2-amino-1-propanol, reference compound]
maximum growth slope [1, 8]: 0.345
maximum growth slope [1, 9]: 0.327
maximum growth slope [1, 10]: 0
maximum growth slope [1, 11]: 0
end-point optical density [2, 12]: 0.3
end-point optical density [2, 13]: 0.4
end-point optical density [2, 14]: 0.3
end-point optical density [2, 15]: 0.4
growth of Pseudomonas Aeruginosa (Table 1 entry) [3, 16]: 0.72
growth of Pseudomonas Aeruginosa (Table 1 entry) [3, 17]: 0.72
growth of Pseudomonas Aeruginosa (Table 1 entry) [3, 18]: 0.72
growth of Pseudomonas Aeruginosa (Table 1 entry) [3, 19]: 0.31
growth of Pseudomonas Aeruginosa (Table 1 entry) [3, 20]: 0.35
growth of Pseudomonas Aeruginosa (Table 1 entry) ([3]; amine 2000 ppm, GROTAN 0 ppm): 0.72
growth of Pseudomonas Aeruginosa (Table 1 entry) [3, 21]: 0.72
growth of Pseudomonas Aeruginosa (Table 1 entry) [3, 22]: 0.69
growth of Pseudomonas Aeruginosa (Table 1 entry) [3, 23]: 0.39
growth of Pseudomonas Aeruginosa (Table 1 entry) [3, 24]: 0.30
growth of Pseudomonas Aeruginosa (Table 1 entry) [3, 25]: 0.37
growth of Pseudomonas Aeruginosa (Table 1 entry) ([3]; amine 4000 ppm, GROTAN 0 ppm): 1.12
enhancement in the biocidal effect of GROTAN [3]: not seen
maximum growth slope [4, 26]: 0.667 OD per time
maximum growth slope [4, 27]: 0.508 OD per time
maximum growth slope [4, 28]: 0.407 OD per time
maximum growth slope ([4]; amine 1000 ppm, BIT 0 ppm): 0.478 OD per time
maximum growth slope [4, 29]: 0.361 OD per time
maximum growth slope [4, 30]: 0.320 OD per time
maximum growth slope [4, 31]: 0.228 OD per time
maximum growth slope ([4]; amine 2000 ppm, BIT 0 ppm): 0.29 OD per time
maximum growth slope [5, 32]: 0.32 OD per time
maximum growth slope [5, 33]: 0.069 OD per time
maximum growth slope ([5]; 2500 ppm amine, GROTAN 0 ppm): 1.065 OD per time
end-point optical density ([6]; amine 470 ppm): 2100 milliOD
end-point optical density ([6]; amine 940 ppm): 2200 milliOD
end-point optical density ([6]; amine 1880 ppm): 2100 milliOD
end-point optical density ([6]; amine 3750 ppm): 2000 milliOD
end-point optical density ([6]; amine 7500 ppm): 1700 milliOD

CCCCNCCO [BAE, butylaminoethanol]
maximum growth slope [1, 8]: 0.083
maximum growth slope [1, 9]: 0
maximum growth slope [1, 10]: 0
maximum growth slope [1, 11]: 0
end-point optical density [2, 12]: 0.3
end-point optical density [2, 13]: 0.3
end-point optical density [2, 14]: 0.2
end-point optical density [2, 15]: 0.2
growth of Pseudomonas Aeruginosa (Table 1 entry) [3, 16]: 0.49
growth of Pseudomonas Aeruginosa (Table 1 entry) [3, 17]: 0.45
growth of Pseudomonas Aeruginosa (Table 1 entry) [3, 18]: 0.35
growth of Pseudomonas Aeruginosa (Table 1 entry) [3, 19]: 0.30
growth of Pseudomonas Aeruginosa (Table 1 entry) [3, 20]: 0.36
growth of Pseudomonas Aeruginosa (Table 1 entry) ([3]; amine 2000 ppm, GROTAN 0 ppm): 0.37
growth of Pseudomonas Aeruginosa (Table 1 entry) [3, 21]: 0.35
growth of Pseudomonas Aeruginosa (Table 1 entry) [3, 22]: 0.32
growth of Pseudomonas Aeruginosa (Table 1 entry) [3, 23]: 0.25
growth of Pseudomonas Aeruginosa (Table 1 entry) [3, 24]: 0.29
growth of Pseudomonas Aeruginosa (Table 1 entry) [3, 25]: 0.36
growth of Pseudomonas Aeruginosa (Table 1 entry) ([3]; amine 4000 ppm, GROTAN 0 ppm): 0.49
enhancement in the biocidal effect of GROTAN [3]: provide an enhancement in the biocidal effect of GROTAN®
maximum growth slope [4, 26]: 0.317 OD per time
maximum growth slope [4, 27]: 0.353 OD per time
maximum growth slope [4, 28]: 0.281 OD per time
maximum growth slope ([4]; amine 1000 ppm, BIT 0 ppm): 0.333 OD per time
maximum growth slope [4, 29]: 0.134 OD per time
maximum growth slope [4, 30]: 0.000 OD per time
maximum growth slope [4, 31]: 0.000 OD per time
maximum growth slope ([4]; amine 2000 ppm, BIT 0 ppm): 0.000 OD per time
maximum growth slope [5, 32]: 0.082 OD per time
maximum growth slope [5, 33]: 0.0515 OD per time
maximum growth slope ([5]; 2500 ppm amine, GROTAN 0 ppm): 0.2 OD per time
MIC (estimate of the concentration range in which the amine starts to inhibit growth) ([7]; 72 hours): >4000 ppm
end-point optical density ([7]; amine 800 ppm): 0.7 milliOD
end-point optical density ([7]; amine 1200 ppm): 0.7 milliOD
end-point optical density ([7]; amine 2000 ppm): 0.6 milliOD
end-point optical density ([7]; amine 4000 ppm): 0.6 milliOD
end-point optical density ([6]; amine 470 ppm): 2200 milliOD
end-point optical density ([6]; amine 940 ppm): 2100 milliOD
end-point optical density ([6]; amine 1880 ppm): 2000 milliOD
end-point optical density ([6]; amine 3750 ppm): 1900 milliOD
end-point optical density ([6]; amine 7500 ppm): 1700 milliOD
